{
  "source": "paper PMC11601558",
  "about": "“SLC6A19 inhibition facilitates urinary neutral amino acid excretion and lowers plasma phenylalanine” (JCI Insight, 2024)",
  "test_system": "Pah^enu2 mice",
  "assay": "Plasma Phe in Pah^enu2 mice on defined amino acid diets (0.75%, 0.45%, 0.225% Phe)",
  "format": "in vivo, mouse",
  "parameters": "plasma Phe: unit not given here",
  "conditions": "for mean plasma Phe lower than vehicle / plasma Phe, mean ± SD: 200 mg/kg, 3 hours after dose; for plasma Phe: Fig 3e, Pah^enu2 mice on defined diet, individual animals",
  "method": "To modulate baseline plasma Phe levels, 8–13-week-old male Pah^enu2 mice were maintained on isocaloric amino acid–defined diets with either 7.5 g/kg (0.75%, Teklad T.2018.15), 4.5 g/kg (0.45%, Teklad custom formulation), or 2.25 g/kg (0.225%, Teklad custom formulation) L-Phe for 2 weeks before a single dose administration of 200 mg/kg JN-170 or vehicle. Animals had unrestricted access to food and water throughout the study. Serial plasma samples were taken predose as well as 1, 3, 8, 24 and 48 hours after the dose. For all studies, mice were dosed at 7:00 a.m. ± 30 minutes to synchronize with circadian rhythm.\nPlasma sample analyses were carried out by liquid chromatography tandem mass spectrometry (LC-MS/MS). Plasma samples were mixed 1:1 with carbamazepine or ^13C6-Phe as internal standards for JN-170 and Phe, respectively. Plasma proteins were precipitated by adding 4 volumes of acetonitrile (ACN) and 0.1% formic acid (FA) followed by centrifugation for 5 minutes at 2,100g. Supernatants were diluted 1:1 in ACN and 0.1% FA. For JN-170, a Waters HSS T3 reversed phase column was used for separation using a binary gradient of 0.1% FA in water (mobile phase A) to 0.1% in ACN (mobile phase B). At a flow rate of 0.8 mL/min, the mobile phase gradient increased from an initial 25% phase B to 95% phase B over 30 seconds. After, 1.5 minutes, the gradient was returned to 25% mobile phase B. For detection of Phe, an Acquity UPLC ethylene bridged hybrid (BEH) amide column was used, with a binary gradient of 10 mM ammonium acetate in 95:5:1 H2O:ACN:FA (mobile phase A) to 10 mM ammonium acetate in 95:5:1 ACN:H2O:FA (mobile phase B). At a flow rate of 0.5 mL/min, the mobile phase gradient changed from an initial 100% phase B to 50% phase B over 2.1 minutes. It was returned to 100% phase B after 4 minutes. Analytes were detected using a Sciex API-5500 in multiple reaction monitoring mode using an electrospray ionization source in the positive ion mode with the following ion transitions: m/z 435.2/84.1 (JN-170), 237.1/194.1 (carbamazepine), 166.1/120.1 (Phe), 172.2/126.2 for (^13C6-Phe). Analyte concentrations were calculated with a 1/×^2 linear regression over a concentration range of 1 or 2 to 5,000 ng/mL for JN-170 and 0.05–100 ng/mL for Phe.",
  "note": "Values joined by “and” are separate entries in the source; they are usually repeats but may differ in a detail not shown here. Equal values may be shown once.",
  "data": [
    {"smiles": "N#Cc1ccc(-c2noc([C@]3(C(F)(F)F)CCN(C(=O)NCCC4(N)CC4)C3)n2)cc1", "note": "[JN-170]", "values": [
      {"measurement": "mean plasma Phe lower than vehicle", "setting": "0.225% Phe diet", "result": 47, "unit": "%"},
      {"measurement": "plasma Phe, mean ± SD", "setting": "0.225% Phe diet", "result": "309 ± 108", "unit": "µM"},
      {"measurement": "mean plasma Phe lower than vehicle", "setting": "0.45% Phe diet", "result": 61, "unit": "%"},
      {"measurement": "plasma Phe, mean ± SD", "setting": "0.45% Phe diet", "result": "416 ± 117", "unit": "µM"},
      {"measurement": "mean plasma Phe lower than vehicle", "setting": "0.75% Phe diet", "result": 59, "unit": "%"},
      {"measurement": "plasma Phe, mean ± SD", "setting": "0.75% Phe diet", "result": "621 ± 141", "unit": "µM"},
      {"measurement": "plasma Phe", "setting": "time 0 h", "result": "2027 and 2042 and 2474 and 2301 and 2768 and 2728 and 2723 and 1767 and 1191 and 962 and 924 and 848 and 1013 and 971 and 1061 and 1569 and 1364 and 1314"},
      {"measurement": "plasma Phe", "setting": "time 1 h", "result": "884 and 990 and 803 and 886 and 865 and 914 and 675 and 1252 and 589 and 1292 and 1010 and 927 and 813 and 907 and 727 and 787 and 898 and 1296 and 942 and 978"},
      {"measurement": "plasma Phe", "setting": "time 3 h", "result": "973 and 455 and 892 and 697 and 736 and 559 and 671 and 509 and 763 and 495 and 635 and 669 and 535 and 654 and 529 and 586 and 485 and 516 and 441 and 769 and 511 and 574"},
      {"measurement": "plasma Phe", "setting": "time 8 h", "result": "938 and 505 and 720 and 502 and 600 and 578 and 665 and 577 and 945 and 657 and 745 and 672 and 637 and 621 and 611 and 518 and 376 and 392 and 476 (2×) and 629"},
      {"measurement": "plasma Phe", "setting": "time 24 h", "result": "1767 and 1553 and 1370 and 1402 and 1592 and 597 and 1045 and 1827 and 1448 and 1043 and 988 and 1535 and 1388 and 1336 and 1203 and 1339 and 1578 and 871 and 1063"}
    ]}
  ]
}
